These results are taken from ChEMBL document CHEMBL3785058, “Design and synthesis of novel 3-sulfonylpyrazol-4-amino pyrimidines as potent anaplastic lymphoma kinase (ALK) inhibitors” (Bioorg Med Chem Lett, 2016).

The source made the active and inactive calls. No cut-off for these calls is given here.

Series [1] in a line: Antiproliferative activity against human KARPAS299 cells after 96 hrs by CellTiter-Glo assay. The following applies: KARPAS-299, 96 h. Format: functional, cell-based. (In general: Cellular ATP, detected with luciferase, serves as a proxy for viable cell number.)
Series [2] deals with NCI-H2228. The series is described as follows: Antiproliferative activity against human NCI-H2228 cells after 96 hrs by CellTiter-Glo assay. It counts as functional, cell-based. The note with it: NCI-H2228, 96 h.
A short description of series [3]: Ratio of IC50 for human ERG to IC50 for human NCI-H2228 cells.
The target in series [4] is ALK tyrosine kinase receptor (Homo sapiens, UniProt Q9UM73). As to the kind of experiment: Inhibition of recombinant human wild type ALK using tyrosine kinase substrate-biotin after 30 mins by HTRF assay. Background: In TR-FRET formats the signal depends on donor and acceptor labels being close together.
Series [5] has as its target ALK tyrosine kinase receptor (Homo sapiens, UniProt Q9UM73, L1196M). As to the kind of experiment: Inhibition of recombinant human ALK L1196M mutant using tyrosine kinase substrate-biotin after 30 mins by HTRF assay.
Series [6] relates to Mus musculus. As to the kind of experiment: In vivo inhibition of ALK in human KARPAS299 cells xenografted in mouse assessed as suppression of STAT3 phosphorylation at 20 mg/kg measured after 8 hrs. Format: functional. The note with it: KARPAS-299, 8 h. In general terms: In xenograft studies the graft and the host belong to different species.
The nature of series [7]: Half life in Balb/c nude mouse at 1 mg/kg, iv. Format: ADME, organism-based. The following applies: in vivo.
A short description of series [8]: AUC(0 to infinity) in Balb/c nude mouse at 1 mg/kg, iv. It counts as ADME, organism-based. Also on record: dose 1 mg/kg, route intravenous, time infinity. The note with it: in vivo.
A short description of series [9]: Volume of distribution in Balb/c nude mouse at 1 mg/kg, iv. The following applies: in vivo. It counts as ADME, organism-based.
The nature of series [10]: Clearance in Balb/c nude mouse at 1 mg/kg, iv. The note with it: in vivo. It counts as ADME, organism-based.
A short description of series [11]: Half life in Sprague-Dawley rat at 1 mg/kg, iv. Format: ADME, organism-based. The following applies: in vivo.
A short description of series [12]: AUC(0 to infinity) in Sprague-Dawley rat at 1 mg/kg, iv. Format: ADME, organism-based. Also on record: dose 1 mg/kg, route intravenous, time infinity. The note with it: in vivo.
A short description of series [13]: Volume of distribution in Sprague-Dawley rat at 1 mg/kg, iv. Format: ADME, organism-based. The note with it: in vivo.
Series [14] in a line: Clearance in Sprague-Dawley rat at 1 mg/kg, iv. It counts as ADME, organism-based. The following applies: in vivo.
Series [15] in a line: Half life in Beagle dog at 1 mg/kg, iv. The note with it: in vivo. It counts as ADME, organism-based, Canis lupus familiaris.
The nature of series [16]: AUC(0 to infinity) in Beagle dog at 1 mg/kg, iv. It counts as ADME, organism-based, Canis lupus familiaris. Also on record: dose 1 mg/kg, time infinity, route intravenous. The following applies: in vivo.
The nature of series [17]: Volume of distribution in Beagle dog at 1 mg/kg, iv. It counts as ADME, organism-based, Canis lupus familiaris. The note with it: in vivo.
Series [18] is described as follows: Clearance in Beagle dog at 1 mg/kg, iv. Format: ADME, organism-based, Canis lupus familiaris. The following applies: in vivo.
Series [19] can be described thus: Cmax in Balb/c nude mouse at 5 mg/kg, po. The note with it: in vivo. Format: ADME, organism-based. Also on record: dose 5 mg/kg, route oral.
The nature of series [20]: Tmax in Balb/c nude mouse at 5 mg/kg, po. Format: ADME, organism-based. The following applies: in vivo.
Series [21] is described as follows: AUC(0 to infinity) in Balb/c nude mouse at 5 mg/kg, po. It counts as ADME, organism-based. Further details: dose 5 mg/kg, time infinity, route oral. The note with it: in vivo.
Series [22] is described as follows: Oral bioavailability in Balb/c nude mouse at 5 mg/kg. Format: ADME, organism-based. The following applies: in vivo.
Series [23] can be described thus: Cmax in Sprague-Dawley rat at 5 mg/kg, po. Format: ADME, organism-based. Further details: dose 5 mg/kg, route oral. The following applies: in vivo.
Series [24] can be described thus: Tmax in Sprague-Dawley rat at 5 mg/kg, po. The note with it: in vivo. Format: ADME, organism-based.
Series [25] in a line: AUC(0 to infinity) in Sprague-Dawley rat at 5 mg/kg, po. It counts as ADME, organism-based. Further details: dose 5 mg/kg, route oral, time infinity. The following applies: in vivo.
Series [26] in a line: Oral bioavailability in Sprague-Dawley rat at 5 mg/kg. Format: ADME, organism-based. The following applies: in vivo.
The nature of series [27]: Cmax in Beagle dog at 3 mg/kg, po. Format: ADME, organism-based, Canis lupus familiaris. The note with it: in vivo. Further details: dose 3 mg/kg, route oral.
Series [28] in a line: Tmax in Beagle dog at 3 mg/kg, po. It counts as ADME, organism-based, Canis lupus familiaris. The following applies: in vivo.
A short description of series [29]: AUC(0 to infinity) in Beagle dog at 3 mg/kg, po. Format: ADME, organism-based, Canis lupus familiaris. Also on record: dose 3 mg/kg, route oral, time infinity. The following applies: in vivo.
Series [30] in a line: Oral bioavailability in Beagle dog at 3 mg/kg. It counts as ADME, organism-based, Canis lupus familiaris. The note with it: in vivo.
Series [31] relates to NCI-H2228. The series is described as follows: Antitumor activity against human NCI-H2228 cells xenografted in Balb/c nude mouse assessed as tumor growth inhibition at 3 mg/kg, po qd administered for two weeks measured on day 14 post last dose. It counts as functional. The following applies: 336 h, read-out: TGI.
Series [32] concerns NCI-H2228. As to the kind of experiment: Antitumor activity against human NCI-H2228 cells xenografted in Balb/c nude mouse assessed as tumor growth inhibition at 30 mg/kg, po qd administered for two weeks measured on day 14 post last dose. Format: functional. The note with it: 336 h, read-out: TGI.
The test system of series [33] is Mus musculus. The series is described as follows: Toxicity in Balb/c nude mouse xenografted with human NCI-H2228 cells assessed as change in body weight at 30 mg/kg, po qd administered for two weeks. Format: organism-based. The following applies: in vivo.
For series [34], the system named is NCI-H2228. The following applies: Homo sapiens.
Description: Antitumor activity against human NCI-H2228 cells xenografted in Balb/c nude mouse assessed as tumor growth inhibition administered as po qd for two weeks
Series [35] has as its system NCI-H2228. The following applies: Homo sapiens. This is another data set of the same source.
Description: Antitumor activity against human NCI-H2228 cells xenografted in Balb/c nude mouse assessed as tumor growth inhibition at 10 mg/kg, po qd administered for two weeks
Series [36] concerns NCI-H2228. The following applies: Homo sapiens. The source holds these as a separate data set.
Description: Antitumor activity against human NCI-H2228 cells xenografted in Balb/c nude mouse assessed as tumor growth inhibition at 30 mg/kg, po qd administered for two weeks measured after 1 week during compound dosing

Chain of ALK tyrosine kinase receptor (Homo sapiens, UniProt Q9UM73, L1196M) (Q9UM73 19-1620 L1196M limits assumed): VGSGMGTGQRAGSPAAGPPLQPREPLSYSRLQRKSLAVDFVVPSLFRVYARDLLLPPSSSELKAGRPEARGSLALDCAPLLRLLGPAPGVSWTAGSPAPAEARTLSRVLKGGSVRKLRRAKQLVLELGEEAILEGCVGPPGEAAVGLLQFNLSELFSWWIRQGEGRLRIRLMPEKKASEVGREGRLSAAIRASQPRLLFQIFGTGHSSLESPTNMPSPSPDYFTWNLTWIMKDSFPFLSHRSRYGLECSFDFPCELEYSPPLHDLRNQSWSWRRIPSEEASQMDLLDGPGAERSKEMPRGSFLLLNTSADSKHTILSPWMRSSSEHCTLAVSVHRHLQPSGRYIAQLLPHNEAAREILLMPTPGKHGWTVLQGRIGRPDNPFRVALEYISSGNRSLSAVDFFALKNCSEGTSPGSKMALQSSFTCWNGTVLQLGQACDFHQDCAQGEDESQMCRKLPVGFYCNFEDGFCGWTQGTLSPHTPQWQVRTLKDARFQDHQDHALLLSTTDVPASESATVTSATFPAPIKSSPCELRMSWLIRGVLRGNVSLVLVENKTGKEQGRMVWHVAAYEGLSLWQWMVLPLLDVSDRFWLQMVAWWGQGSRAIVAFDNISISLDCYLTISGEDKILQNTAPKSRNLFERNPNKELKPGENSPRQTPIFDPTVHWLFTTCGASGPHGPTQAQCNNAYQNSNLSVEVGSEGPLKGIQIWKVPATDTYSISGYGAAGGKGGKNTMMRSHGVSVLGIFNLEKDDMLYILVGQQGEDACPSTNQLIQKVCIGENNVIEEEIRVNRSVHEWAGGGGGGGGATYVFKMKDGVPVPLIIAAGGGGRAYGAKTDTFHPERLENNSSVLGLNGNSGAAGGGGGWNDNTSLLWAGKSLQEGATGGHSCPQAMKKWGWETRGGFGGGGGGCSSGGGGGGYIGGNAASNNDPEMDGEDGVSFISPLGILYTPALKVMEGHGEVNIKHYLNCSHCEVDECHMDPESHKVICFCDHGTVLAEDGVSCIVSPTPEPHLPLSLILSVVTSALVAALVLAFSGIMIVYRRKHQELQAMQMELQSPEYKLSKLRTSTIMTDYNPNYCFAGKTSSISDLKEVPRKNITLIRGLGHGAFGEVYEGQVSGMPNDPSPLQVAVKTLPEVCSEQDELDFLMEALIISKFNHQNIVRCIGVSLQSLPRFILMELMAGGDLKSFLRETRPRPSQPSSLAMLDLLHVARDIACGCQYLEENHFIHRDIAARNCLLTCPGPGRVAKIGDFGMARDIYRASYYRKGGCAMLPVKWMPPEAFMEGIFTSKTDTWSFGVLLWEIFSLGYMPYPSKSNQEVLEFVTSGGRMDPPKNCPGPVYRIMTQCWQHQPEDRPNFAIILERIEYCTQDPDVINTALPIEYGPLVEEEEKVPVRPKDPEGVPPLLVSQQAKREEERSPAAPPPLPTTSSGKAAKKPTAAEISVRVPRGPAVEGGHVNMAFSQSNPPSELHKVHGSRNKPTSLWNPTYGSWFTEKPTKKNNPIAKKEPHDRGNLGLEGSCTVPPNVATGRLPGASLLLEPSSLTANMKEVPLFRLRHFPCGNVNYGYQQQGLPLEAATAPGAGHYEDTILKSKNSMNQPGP
Chain of ALK tyrosine kinase receptor (Homo sapiens, UniProt Q9UM73) (Q9UM73 whole entry): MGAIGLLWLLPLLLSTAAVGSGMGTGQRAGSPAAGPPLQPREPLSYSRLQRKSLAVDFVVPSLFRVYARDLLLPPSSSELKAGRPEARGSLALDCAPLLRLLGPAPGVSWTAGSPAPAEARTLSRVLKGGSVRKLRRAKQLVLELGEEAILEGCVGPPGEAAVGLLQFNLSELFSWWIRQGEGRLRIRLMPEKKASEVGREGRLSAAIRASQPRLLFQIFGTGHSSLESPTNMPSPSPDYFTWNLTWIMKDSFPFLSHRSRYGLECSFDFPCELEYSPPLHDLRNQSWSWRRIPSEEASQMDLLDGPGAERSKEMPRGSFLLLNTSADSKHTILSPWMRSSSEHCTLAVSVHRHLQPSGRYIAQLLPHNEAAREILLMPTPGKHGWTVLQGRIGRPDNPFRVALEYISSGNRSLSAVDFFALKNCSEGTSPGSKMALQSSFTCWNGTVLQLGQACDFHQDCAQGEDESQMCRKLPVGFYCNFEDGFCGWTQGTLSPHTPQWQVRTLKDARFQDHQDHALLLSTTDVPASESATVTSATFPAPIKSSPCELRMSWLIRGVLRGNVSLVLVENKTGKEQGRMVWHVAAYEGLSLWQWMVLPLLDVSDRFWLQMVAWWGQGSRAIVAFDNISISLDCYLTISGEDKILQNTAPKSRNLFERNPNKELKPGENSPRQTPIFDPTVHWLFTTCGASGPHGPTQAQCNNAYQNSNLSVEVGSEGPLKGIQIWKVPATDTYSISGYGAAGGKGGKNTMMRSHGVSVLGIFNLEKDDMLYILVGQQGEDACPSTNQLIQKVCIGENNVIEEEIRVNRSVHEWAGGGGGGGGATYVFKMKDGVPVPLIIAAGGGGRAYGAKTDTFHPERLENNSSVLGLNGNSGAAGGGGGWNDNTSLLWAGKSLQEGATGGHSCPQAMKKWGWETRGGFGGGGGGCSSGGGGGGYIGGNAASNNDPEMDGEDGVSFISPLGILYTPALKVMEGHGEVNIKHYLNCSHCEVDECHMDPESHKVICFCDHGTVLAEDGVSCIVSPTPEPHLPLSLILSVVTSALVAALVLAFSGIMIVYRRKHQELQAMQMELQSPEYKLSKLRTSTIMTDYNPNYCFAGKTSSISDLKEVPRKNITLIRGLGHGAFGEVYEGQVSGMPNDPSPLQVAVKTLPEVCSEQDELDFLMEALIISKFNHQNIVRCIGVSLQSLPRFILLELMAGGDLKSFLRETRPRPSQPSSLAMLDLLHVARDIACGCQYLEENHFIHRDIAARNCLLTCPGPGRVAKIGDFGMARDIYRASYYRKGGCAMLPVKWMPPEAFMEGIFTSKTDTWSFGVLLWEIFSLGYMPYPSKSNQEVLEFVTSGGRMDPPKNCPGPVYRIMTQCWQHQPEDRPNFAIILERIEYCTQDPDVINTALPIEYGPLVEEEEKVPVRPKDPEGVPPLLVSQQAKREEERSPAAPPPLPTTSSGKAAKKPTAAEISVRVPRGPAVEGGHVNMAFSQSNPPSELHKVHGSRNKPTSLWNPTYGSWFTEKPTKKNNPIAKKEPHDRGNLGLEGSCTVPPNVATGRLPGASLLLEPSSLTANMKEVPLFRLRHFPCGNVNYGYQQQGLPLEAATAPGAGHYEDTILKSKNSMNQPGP

As for `Cc1cc(Nc2ncc(Cl)c(Nc3cn(C)nc3S(=O)(=O)C(C)C)n2)c(OC2CC2)cc1[C@H]1CC[C@H](NC(C)C)CC1`, the IC50 (in general, the concentration that gives 50% inhibition) is 0.005 µM in series [1] and 0.054 µM in the series on NCI-H2228 [2]. In [3], the “Ratio IC50” value stood at 16.

For `Cc1cc(Nc2ncc(Cl)c(Nc3cn(C4CC4)nc3S(=O)(=O)C(C)C)n2)c(OC(C)C)cc1C1CCNCC1`, the results for the IC50 (in series [1]; in the series with NCI-H2228 [2]) were 0.037 µM and 0.248 µM, respectively.

For the compound `Cc1cc(Nc2ncc(Cl)c(Nc3cn(C)nc3S(=O)(=O)CC(C)C)n2)c(OC(C)C)cc1C1CCNCC1`, the values for the half-maximal inhibitory concentration (IC50) (in [1]; in the series on NCI-H2228 [2]) were 0.024 µM and 0.193 µM, respectively.

Turning to `Cc1cc(Nc2ncc(Cl)c(Nc3cn(C)nc3S(=O)(=O)C(C)C)n2)c(OC2CC2)cc1C1CCN(C)CC1`, the IC50 in [4] is 0.001 µM; in the series with NCI-H2228 [2], 0.039 µM.

With `Cc1cc(Nc2ncc(Cl)c(Nc3cn(C)nc3S(=O)(=O)C(C)C)n2)c(OC2CC2)cc1C1CCOCC1`, the IC50 was determined as 0.018 µM in series [1] and 0.174 µM with NCI-H2228 [2]. Besides, the “Ratio IC50” value in series [3] is on record as 21.

Regarding `Cc1cc(Nc2ncc(Cl)c(Nc3cn(C)nc3S(=O)(=O)C(C)C)n2)c(OC2CC2)cc1[C@H]1CC[C@@H](NC(C)C)CC1`, the IC50 was found to be 0.005 µM in series [4], 0.01 µM in [5] and 0.072 µM in the series with NCI-H2228 [2]. For the same compound, in series [3], the “Ratio IC50” value turned out to be 15.

For `CCC(C)S(=O)(=O)c1nn(C)cc1Nc1nc(Nc2cc(C)c(C3CCNCC3)cc2OC(C)C)ncc1Cl` (stereo not drawn), the IC50 in series [1] amounted to 0.021 µM; in the series on NCI-H2228 [2], 0.224 µM.

`Cc1cc(Nc2ncc(Cl)c(Nc3cn(C)nc3S(=O)(=O)C(C)C)n2)c(OC2CC2)cc1[C@H]1CC[C@H](NS(C)(=O)=O)CC1`: the IC50 in series [4] is 0.016 µM; in series [5], 0.02 µM; in series [1], 0.018 µM; in the series on NCI-H2228 [2], 0.151 µM.

Regarding `Cc1cc(Nc2ncc(Cl)c(Nc3cn(C)nc3S(=O)(=O)C(C)C)n2)c(OC2CC2)cc1[C@H]1CC[C@H](NC2CC2)CC1`, the IC50 in [1] stood at 0.009 µM; in the series on NCI-H2228 [2] it was 0.088 µM. In addition, in [3], the “Ratio IC50” value came to 23.

In the case of `CCn1cc(Nc2nc(Nc3cc(C)c(C4CCNCC4)cc3OC(C)C)ncc2Cl)c(S(=O)(=O)C(C)C)n1`, the IC50 in [4] came out at 0.02 µM; in series [5] it was 0.028 µM; in series [1] it was 0.068 µM; in the series with NCI-H2228 [2] it was 0.764 µM.

On to `CNC(=O)c1nn(C)cc1Nc1nc(Nc2cc(C)c(C3CCN(C)CC3)cc2OC2CC2)ncc1Cl`, for which the values for the IC50 (in series [4]; in series [5]; in the series on NCI-H2228 [2]) were 0.012 µM, 0.024 µM and 0.661 µM, respectively.

For `Cc1cc(Nc2ncc(Cl)c(Nc3cn(C)nc3S(=O)(=O)C(C)C)n2)c(OC2CC2)cc1[C@H]1CC[C@H](NCCN(C)C)CC1`, the IC50 in the series on NCI-H2228 [2] came out at 0.21 µM.

As for `Cc1cc(Nc2ncc(Cl)c(Nc3cn(C)nc3S(=O)(=O)C3CC3)n2)c(OC(C)C)cc1C1CCNCC1`, the IC50 in series [4] was 0.4 µM; in series [5], above 10 µM; in series [1], above 10 µM; in the series with NCI-H2228 [2], above 10 µM.

Regarding `Cc1cc(Nc2ncc(F)c(Nc3cn(C)nc3S(=O)(=O)C(C)C)n2)c(OC2CC2)cc1C1CCN(C)CC1`, it took 0.081 µM to reach half-maximal inhibition in the series on NCI-H2228 [2] (IC50).

Compound `Cc1cc(Nc2ncc(C)c(Nc3cn(C)nc3S(=O)(=O)C(C)C)n2)c(OC2CC2)cc1C1CCN(C)CC1` gave an IC50 in the series with NCI-H2228 [2] of 0.069 µM.

On to `CC(=O)N1CCN([C@H]2CC[C@H](c3cc(OC4CC4)c(Nc4ncc(Cl)c(Nc5cn(C)nc5S(=O)(=O)C(C)C)n4)cc3C)CC2)CC1`, for which the figures for the IC50 (in series [1]; with NCI-H2228 [2]) were 0.007 µM and 0.076 µM, respectively. In addition, in [3], the “Ratio IC50” value came out at 33. The inhibition in vivo at 20 mg/kg in the series with Mus musculus [6] stood at 79.2%. The half-life (as a rule, how long it takes for the measured level to halve) was 1.4 h in series [7], 4.5 h in series [11] and 6.4 h in series [15]. For the same compound, the AUC(0-inf) (usually the area under the concentration-time curve extrapolated to infinity) stood at 0.445 µg·h/mL in series [8]; 0.77 µg·h/mL in [12]; 1.51 µg·h/mL in series [16]; 1.7 µg·h/mL in series [21]; 3.2 µg·h/mL in series [25]; 3.34 µg·h/mL in series [29]. For the same compound, the Vd (as a rule, the apparent volume that relates the amount in the body to the concentration in plasma or blood) in series [9] amounted to 4.6 L/kg; in series [13], 8.5 L/kg; in series [17], 6.1 L/kg. Also, the clearance (as a rule, the rate of elimination divided by the concentration) was found to be 2.25 L/h/kg in series [10], 1.31 L/h/kg in series [14] and 0.666 L/h/kg in [18]. In addition, the results for the Cmax in series [19], in series [23] and in series [27] were 0.446 µg/mL, 0.22 µg/mL and 0.355 µg/mL, respectively. Besides, the values for the Tmax in [20], in [24] and in series [28] were 0.5 h, 6 h and 1 h, respectively. The figures for the bioavailability in series [22], in series [26] and in [30] were 76.5%, 85.3% and 74%, respectively. In addition, in the series on NCI-H2228 [31], the inhibition in vivo at 3 mg/kg stood at 50%. Besides, the inhibition in vivo at 30 mg/kg in the series on NCI-H2228 [32] was determined as 140%. Besides, the Activity entry in the series on Mus musculus [33] is “Non-toxic”. For the same compound, in the series on NCI-H2228 [34], the TGI entry was “Dose-dependent effect”. Further, the TGI result with NCI-H2228 [35] and with NCI-H2228 [36] was “Active” each time.
